Earlier results, collected in patent US20060122197A1, “Amido compounds and their use as pharmaceuticals” (priority 2004, published 2006).

Target: T1, 11βHSD1 in the eye (Homo sapiens, UniProt P28845)
T1 construct: host or cells: eye of healthy volunteers (in vivo)
Details: healthy volunteers; after seven days of carbenoxolone treatment

T1 sequence (P28845 whole entry): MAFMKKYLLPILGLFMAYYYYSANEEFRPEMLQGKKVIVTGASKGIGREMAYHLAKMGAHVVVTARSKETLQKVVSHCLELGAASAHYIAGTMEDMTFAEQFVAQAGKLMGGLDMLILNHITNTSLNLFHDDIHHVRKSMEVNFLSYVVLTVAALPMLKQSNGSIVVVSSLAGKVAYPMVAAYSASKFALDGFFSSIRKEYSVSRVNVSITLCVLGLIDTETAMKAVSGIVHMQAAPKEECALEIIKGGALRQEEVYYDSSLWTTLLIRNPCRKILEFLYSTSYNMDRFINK

IOP was reduced by: 18%
SMILES: CC1(C)[C@@H](OC(=O)CCC(=O)O)CC[C@]2(C)[C@H]3C(=O)C=C4[C@@H]5C[C@@](C)(C(=O)O)CC[C@]5(C)CC[C@@]4(C)[C@]3(C)CC[C@@H]12 [carbenoxolone]
